Measured values from US8003660B2, “Modulators of muscarinic receptors” (Vertex Pharmaceuticals Incorporated, priority 2006, dated 2011).

Legend:
Type in all cases: cell-based
[1] = molecular target: T1, M1 muscarinic receptor (Homo sapiens, UniProt P11229); test: Functional mobilization of intracellular calcium (FLIPR) in CHO cells expressing M1; details: for M1 Activity: CHO cells expressing M1, FLIPR calcium assay; for Emax: CHO, 100% efficacy = maximum response obtained with the Carbachol control
T1 construct: expressed in transfected cells; host or cells: CHO (M1-CHO)
T1 sequence (P11229 1-460): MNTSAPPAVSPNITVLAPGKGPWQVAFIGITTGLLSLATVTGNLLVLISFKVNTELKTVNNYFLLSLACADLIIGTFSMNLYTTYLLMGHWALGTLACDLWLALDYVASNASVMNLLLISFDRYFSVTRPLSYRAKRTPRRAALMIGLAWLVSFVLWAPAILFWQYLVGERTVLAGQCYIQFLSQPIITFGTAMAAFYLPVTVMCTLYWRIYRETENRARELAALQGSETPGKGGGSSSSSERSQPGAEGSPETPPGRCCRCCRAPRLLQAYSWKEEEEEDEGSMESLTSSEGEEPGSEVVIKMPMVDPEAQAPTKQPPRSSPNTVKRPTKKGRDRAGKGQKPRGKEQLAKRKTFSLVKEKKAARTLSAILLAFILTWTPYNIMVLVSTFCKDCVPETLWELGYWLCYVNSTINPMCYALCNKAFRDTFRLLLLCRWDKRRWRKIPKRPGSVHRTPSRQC
In short: (§1)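 Calcium flux is read on FLIPR over 60 sec at 488/540 nm in muscarinic-receptor CHO lines. Antagonist mode adds carbachol at EC80 after 15 min compound preincubation or with simultaneous co-application. Agonist mode adds compound alone. Cells carry Fluo-3 or Calcium 3 dye in probenecid-containing pH 7.4 buffer, 0.5% DMSO final.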

[2] = molecular target: T2, M2 muscarinic receptor (Homo sapiens, UniProt P08172); test: Functional mobilization of intracellular calcium (FLIPR) in CHO cells expressing M2; details: for M2 Activity: CHO cells expressing M2, FLIPR calcium assay; for Emax: CHO, 100% efficacy = maximum response obtained with the Carbachol control
T2 construct: expressed in transfected cells; host or cells: CHO (M2-CHO)
T2 sequence (P08172 1-466): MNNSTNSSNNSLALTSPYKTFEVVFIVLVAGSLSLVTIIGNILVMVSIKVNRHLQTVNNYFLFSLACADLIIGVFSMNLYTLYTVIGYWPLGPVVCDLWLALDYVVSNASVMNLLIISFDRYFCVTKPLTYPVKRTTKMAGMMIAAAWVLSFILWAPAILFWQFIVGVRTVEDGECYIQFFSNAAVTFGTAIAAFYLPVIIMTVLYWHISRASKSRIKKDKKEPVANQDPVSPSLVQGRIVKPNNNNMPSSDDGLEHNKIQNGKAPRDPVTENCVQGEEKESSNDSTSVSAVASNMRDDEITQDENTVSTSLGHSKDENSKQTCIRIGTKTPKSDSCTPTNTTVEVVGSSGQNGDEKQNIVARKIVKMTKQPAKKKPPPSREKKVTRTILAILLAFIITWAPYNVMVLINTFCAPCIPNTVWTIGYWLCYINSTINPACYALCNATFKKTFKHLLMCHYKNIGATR
In short: as §1

[3] = molecular target: T3, M4 muscarinic receptor (Homo sapiens, UniProt P08173); test: Functional mobilization of intracellular calcium (FLIPR) in CHO cells expressing M4; details: for M4 Activity: CHO cells expressing M4, FLIPR calcium assay; for Emax: CHO, 100% efficacy = maximum response obtained with the Carbachol control
T3 construct: expressed in transfected cells; host or cells: CHO (M4-CHO)
T3 sequence (P08173 1-479): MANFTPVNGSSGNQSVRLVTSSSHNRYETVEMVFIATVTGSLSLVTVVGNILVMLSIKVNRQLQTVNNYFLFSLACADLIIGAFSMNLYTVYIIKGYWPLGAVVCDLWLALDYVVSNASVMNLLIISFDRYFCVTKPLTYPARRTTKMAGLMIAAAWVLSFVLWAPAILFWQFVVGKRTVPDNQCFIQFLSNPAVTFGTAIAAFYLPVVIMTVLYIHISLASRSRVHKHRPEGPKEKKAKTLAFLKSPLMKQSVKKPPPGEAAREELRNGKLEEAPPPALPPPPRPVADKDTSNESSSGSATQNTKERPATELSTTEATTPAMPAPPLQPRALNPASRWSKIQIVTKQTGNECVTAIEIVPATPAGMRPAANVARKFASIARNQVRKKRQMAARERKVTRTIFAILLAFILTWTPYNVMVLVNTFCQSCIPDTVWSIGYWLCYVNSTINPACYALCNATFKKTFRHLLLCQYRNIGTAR
In short: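 Recombinant CHO cells loaded with Fluo-3 AM or Calcium 3 dye in pH 7.4 buffer containing 1 mM probenecid, with 0.5% final DMSO. For agonism, compound is added directly. For inhibition, it is preincubated 15 min, or co-applied, before carbachol at EC80. FLIPR fluorescence (ex 488, em 540 nm) is recorded for 60 s.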

[4] = molecular target: T4, M3 muscarinic receptor (Homo sapiens, UniProt P20309); test: Functional mobilization of intracellular calcium (FLIPR) in CHO cells expressing M3; details: for M3 Activity: CHO cells expressing M3, FLIPR calcium assay; for Emax: CHO, 100% efficacy = maximum response obtained with the Carbachol control
T4 construct: expressed in transfected cells; host or cells: CHO (M3-CHO)
In short: as §1

T4 sequence (P20309 whole entry): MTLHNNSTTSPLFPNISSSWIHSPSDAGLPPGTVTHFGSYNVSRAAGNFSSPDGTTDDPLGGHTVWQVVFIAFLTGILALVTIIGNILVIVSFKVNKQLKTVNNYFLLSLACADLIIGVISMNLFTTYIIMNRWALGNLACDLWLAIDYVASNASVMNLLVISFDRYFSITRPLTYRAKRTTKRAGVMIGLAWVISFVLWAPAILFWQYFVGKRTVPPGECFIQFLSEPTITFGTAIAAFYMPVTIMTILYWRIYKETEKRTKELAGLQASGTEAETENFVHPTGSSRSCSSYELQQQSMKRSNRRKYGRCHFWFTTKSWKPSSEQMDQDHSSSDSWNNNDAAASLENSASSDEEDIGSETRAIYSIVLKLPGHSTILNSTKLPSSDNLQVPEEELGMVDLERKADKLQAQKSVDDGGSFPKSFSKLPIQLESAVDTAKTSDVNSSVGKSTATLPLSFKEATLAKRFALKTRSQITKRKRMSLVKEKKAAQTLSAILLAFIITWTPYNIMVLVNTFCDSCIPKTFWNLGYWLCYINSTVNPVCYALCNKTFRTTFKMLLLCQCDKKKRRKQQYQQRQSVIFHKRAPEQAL

SMILES	M1 Activity [1]	Emax [1] [%]	M2 Activity [2]	Emax [2] [%]	M4 Activity [3]	Emax [3] [%]	M3 Activity [4]	Emax [4] [%]
CC(C)(C)CCN1CCC2(CC[C@H](NC(=O)CCCN3CCCC3=O)c3ccccc32)CC1 [compound 197]	+++ (activity was measured to be less than 2.0 μM)	25 to 100	+++ (activity was measured to be less than 2.0 μM)	25 to 100	+++ (activity was measured to be less than 2.0 μM)	25 to 100	+ (activity was measured to be greater than 5.0 μM)	< 25
CCN(C(=O)Cc1ccccn1)[C@H]1CCC2(CCN(CCC(C)(C)C)CC2)c2ccccc21 [compound 198]	+++ (activity was measured to be less than 2.0 μM)	25 to 100	++ (activity was measured to be from 2.0 μM to 5.0 μM)	< 25	+++ (activity was measured to be less than 2.0 μM)	25 to 100	+ (activity was measured to be greater than 5.0 μM)	< 25
CCOC(=O)N(C)[C@H]1CCC2(CCN(CCC(C)(C)C)CC2)c2ccccc21 [compound 199]	++ (activity was measured to be from 2.0 μM to 5.0 μM)	< 25	+ (activity was measured to be greater than 5.0 μM)	< 25	+++ (activity was measured to be less than 2.0 μM)	25 to 100	+ (activity was measured to be greater than 5.0 μM)	< 25
CC(=O)NCC(=O)N[C@@H]1CCC2(CCN(CCC(C)(C)C)CC2)c2cc(F)ccc21 [compound 200]	+++ (activity was measured to be less than 2.0 μM)	25 to 100	+++ (activity was measured to be less than 2.0 μM)	25 to 100	+++ (activity was measured to be less than 2.0 μM)	25 to 100	+ (activity was measured to be greater than 5.0 μM)	< 25
CC(C)(C)CCN1CCC2(CC[C@H](NC(=O)C3CCOCC3)c3ccc(F)cc32)CC1 [compound 202]	+++ (activity was measured to be less than 2.0 μM)	25 to 100	+ (activity was measured to be greater than 5.0 μM)	< 25	+++ (activity was measured to be less than 2.0 μM)	25 to 100	+ (activity was measured to be greater than 5.0 μM)	< 25
CC(C)(C)CCN1CCC2(CC[C@H](NC(=O)[C@H]3CCC(=O)N3)c3ccc(F)cc32)CC1 [compound 203]	+++ (activity was measured to be less than 2.0 μM)	25 to 100	+++ (activity was measured to be less than 2.0 μM)	25 to 100	+++ (activity was measured to be less than 2.0 μM)	25 to 100	+ (activity was measured to be greater than 5.0 μM)	< 25
CC(=O)N[C@H]1CCC2(CCN(C(C)CC(C)(C)C)CC2)c2ccccc21 (stereo partly drawn) [compound 204]	+++ (activity was measured to be less than 2.0 μM)	25 to 100	+ (activity was measured to be greater than 5.0 μM)	< 25	+++ (activity was measured to be less than 2.0 μM)	25 to 100	+ (activity was measured to be greater than 5.0 μM)	< 25
CC(=O)CCC(=O)N[C@@H]1CCC2(CCN(CCC(C)(C)C)CC2)c2ccccc21 [compound 205]	+++ (activity was measured to be less than 2.0 μM)	25 to 100	+ (activity was measured to be greater than 5.0 μM)	< 25	+++ (activity was measured to be less than 2.0 μM)	25 to 100	+ (activity was measured to be greater than 5.0 μM)	< 25
CC(C)CCN1CCC2(CC[C@H](N(C)C(=O)N(C)C)c3ccccc32)CC1 [compound 206]	+ (activity was measured to be greater than 5.0 μM)	< 25	+ (activity was measured to be greater than 5.0 μM)	< 25	+++ (activity was measured to be less than 2.0 μM)	25 to 100	+ (activity was measured to be greater than 5.0 μM)	< 25
CCn1ccc(C(=O)N[C@H]2CCC3(CCN(CCC(C)(C)C)CC3)c3ccccc32)n1 [compound 207]	++ (activity was measured to be from 2.0 μM to 5.0 μM)	25 to 100	+ (activity was measured to be greater than 5.0 μM)	< 25	+++ (activity was measured to be less than 2.0 μM)	25 to 100	+ (activity was measured to be greater than 5.0 μM)	< 25
CC(C)COC(=O)N(C)[C@H]1CCC2(CCN(CCC(C)(C)C)CC2)c2ccccc21 [compound 208]	+++ (activity was measured to be less than 2.0 μM)	25 to 100	+++ (activity was measured to be less than 2.0 μM)	< 25	+++ (activity was measured to be less than 2.0 μM)	25 to 100	+ (activity was measured to be greater than 5.0 μM)	< 25
CC(C)(C)CCN1CCC2(CC[C@H](NC(=O)C3CCOCC3)c3ccccc32)CC1 [compound 209]	+++ (activity was measured to be less than 2.0 μM)	25 to 100	+ (activity was measured to be greater than 5.0 μM)	< 25	+++ (activity was measured to be less than 2.0 μM)	25 to 100	+ (activity was measured to be greater than 5.0 μM)	< 25
CCN(C(=O)CCC(C)=O)[C@@H]1CCC2(CCN(CCC(C)(C)C)CC2)c2ccccc21 [compound 210]	+++ (activity was measured to be less than 2.0 μM)	< 25	+ (activity was measured to be greater than 5.0 μM)	< 25	+++ (activity was measured to be less than 2.0 μM)	25 to 100	+ (activity was measured to be greater than 5.0 μM)	< 25
CCN(C(C)=O)[C@H]1CCC2(CCN(CCC(C)(C)C)CC2)c2ccccc21 [compound 211]	+++ (activity was measured to be less than 2.0 μM)	25 to 100	+ (activity was measured to be greater than 5.0 μM)	< 25	+++ (activity was measured to be less than 2.0 μM)	25 to 100	+ (activity was measured to be greater than 5.0 μM)	< 25
COCCC(=O)N[C@@H]1CCC2(CCN(CCC(C)(C)C)CC2)c2cc(F)ccc21 [compound 212]	+++ (activity was measured to be less than 2.0 μM)	25 to 100	+ (activity was measured to be greater than 5.0 μM)	< 25	+++ (activity was measured to be less than 2.0 μM)	25 to 100	+ (activity was measured to be greater than 5.0 μM)	< 25
